From ChEMBL document CHEMBL5442175, “EUbOPEN Chemogenomics Library - PDSP Secondary Binding” (2024)
Where a name gives a salt, the structure may show the parent alone.

What was measured:
[1] = target: 5-hydroxytryptamine receptor 7 (Homo sapiens, UniProt P34969); test: (§1) PDSP Secondary Binding target: HTR7 - Compounds are tested at 10 uM concentration, plate are incubated at room temperature in the dark for 90 minutes. Reaction are stopped by vacuum filtration onto 0.3% polyethyleneimine soaked filter mats using Filtermate harvester. Scintillation cocktail is then melted onto microwave-dried filters on a hot plate and the radio activity is counted in Microbia counter.
Histamine H2 receptor = Histamine H2 receptor (Homo sapiens, UniProt P25021); test: as §1, with “HRH2” for “HTR7”
[2] = target: T1, 5-hydroxytryptamine receptor 1A (Homo sapiens, UniProt P08908); test: as §1, with “HTR1A” for “HTR7”
T1 sequence (P08908 whole entry): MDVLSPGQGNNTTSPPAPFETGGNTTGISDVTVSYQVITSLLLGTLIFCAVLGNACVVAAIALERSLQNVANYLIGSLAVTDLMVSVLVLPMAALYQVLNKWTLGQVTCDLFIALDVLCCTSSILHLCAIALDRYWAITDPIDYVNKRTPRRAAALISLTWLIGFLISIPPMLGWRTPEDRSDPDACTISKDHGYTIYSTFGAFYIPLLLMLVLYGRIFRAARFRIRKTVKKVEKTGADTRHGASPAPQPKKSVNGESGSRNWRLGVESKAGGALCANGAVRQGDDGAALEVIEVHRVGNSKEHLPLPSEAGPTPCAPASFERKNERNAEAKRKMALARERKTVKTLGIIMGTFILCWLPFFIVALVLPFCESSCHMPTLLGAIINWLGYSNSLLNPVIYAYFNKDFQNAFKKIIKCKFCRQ

[3] = target: T2, 5-hydroxytryptamine receptor 2C (Homo sapiens, UniProt P28335); test: as §1, with “HTR2C” for “HTR7”
T2 sequence (P28335 whole entry): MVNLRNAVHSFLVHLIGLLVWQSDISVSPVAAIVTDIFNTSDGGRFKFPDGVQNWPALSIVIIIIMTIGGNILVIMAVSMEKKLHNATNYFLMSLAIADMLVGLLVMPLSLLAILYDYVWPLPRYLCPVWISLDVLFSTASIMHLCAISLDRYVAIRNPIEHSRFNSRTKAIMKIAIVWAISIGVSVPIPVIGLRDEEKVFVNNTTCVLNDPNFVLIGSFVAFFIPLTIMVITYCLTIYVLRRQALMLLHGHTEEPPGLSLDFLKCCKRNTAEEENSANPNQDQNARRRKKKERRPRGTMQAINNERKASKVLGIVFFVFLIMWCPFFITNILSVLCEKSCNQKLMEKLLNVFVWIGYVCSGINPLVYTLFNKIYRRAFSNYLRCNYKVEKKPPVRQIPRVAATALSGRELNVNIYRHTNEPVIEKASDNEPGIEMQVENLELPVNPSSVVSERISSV

[4] = target: 5-hydroxytryptamine receptor 2B (Homo sapiens, UniProt P41595); test: as §1, with “HTR2B” for “HTR7”
[5] = target: T3, Alpha-2C adrenergic receptor (Homo sapiens, UniProt P18825); test: as §1, with “ADRA2C” for “HTR7”
T3 sequence (P18825 whole entry): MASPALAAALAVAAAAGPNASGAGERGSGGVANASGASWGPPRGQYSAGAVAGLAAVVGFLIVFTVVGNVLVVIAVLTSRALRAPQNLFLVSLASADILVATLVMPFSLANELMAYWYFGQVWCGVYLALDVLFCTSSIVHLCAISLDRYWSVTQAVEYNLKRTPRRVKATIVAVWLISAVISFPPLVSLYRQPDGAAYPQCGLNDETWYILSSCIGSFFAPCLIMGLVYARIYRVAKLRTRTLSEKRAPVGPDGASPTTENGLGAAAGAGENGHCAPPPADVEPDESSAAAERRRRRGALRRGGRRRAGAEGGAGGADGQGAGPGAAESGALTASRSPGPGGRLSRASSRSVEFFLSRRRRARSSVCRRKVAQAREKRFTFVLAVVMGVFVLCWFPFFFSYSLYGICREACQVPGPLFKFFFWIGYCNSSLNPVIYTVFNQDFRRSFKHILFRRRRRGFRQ

[6] = target: 5-hydroxytryptamine receptor 2A (Homo sapiens, UniProt P28223); test: as §1, with “HTR2A” for “HTR7”
[7] = target: Kappa-type opioid receptor (Homo sapiens, UniProt P41145); test: as §1, with “OPRK1” for “HTR7”
Mu-type opioid receptor = Mu-type opioid receptor (Homo sapiens, UniProt P35372); test: as §1, with “OPRM1” for “HTR7”
[8] = target: 5-hydroxytryptamine receptor 6 (Homo sapiens, UniProt P50406); test: as §1, with “HTR6” for “HTR7”
[9] = target: Sodium-dependent noradrenaline transporter (Homo sapiens, UniProt P23975); test: as §1, with “SLC6A2” for “HTR7”
[10] = target: 5-hydroxytryptamine receptor 5A (Homo sapiens, UniProt P47898); test: as §1, with “HTR5A” for “HTR7”
[11] = target: T4, Alpha-1B adrenergic receptor (Homo sapiens, UniProt P35368); test: as §1, with “ADRA1B” for “HTR7”
T4 sequence (P35368 whole entry): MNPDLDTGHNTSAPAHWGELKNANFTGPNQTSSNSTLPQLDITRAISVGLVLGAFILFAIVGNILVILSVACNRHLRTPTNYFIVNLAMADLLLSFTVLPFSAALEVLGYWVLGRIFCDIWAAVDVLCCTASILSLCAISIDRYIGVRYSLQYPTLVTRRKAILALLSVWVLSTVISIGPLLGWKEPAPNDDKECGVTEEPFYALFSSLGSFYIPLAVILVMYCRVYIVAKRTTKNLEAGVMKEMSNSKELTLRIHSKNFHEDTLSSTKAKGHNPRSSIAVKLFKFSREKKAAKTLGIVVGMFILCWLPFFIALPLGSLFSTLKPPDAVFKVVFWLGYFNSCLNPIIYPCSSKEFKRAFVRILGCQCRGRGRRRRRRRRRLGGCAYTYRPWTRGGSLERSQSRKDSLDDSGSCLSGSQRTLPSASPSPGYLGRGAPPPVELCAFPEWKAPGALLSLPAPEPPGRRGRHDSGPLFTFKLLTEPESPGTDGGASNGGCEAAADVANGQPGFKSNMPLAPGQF

[12] = target: 5-hydroxytryptamine receptor 1D (Homo sapiens, UniProt P28221); test: as §1, with “HTR1D” for “HTR7”
[13] = target: Sigma intracellular receptor 2 (Homo sapiens, UniProt Q5BJF2); test: as §1, with “TMEM97” for “HTR7”
D(3) dopamine receptor = D(3) dopamine receptor (Homo sapiens, UniProt P35462); test: as §1, with “DRD3” for “HTR7”
[14] = target: T5, Alpha-2B adrenergic receptor (Homo sapiens, UniProt P18089); test: as §1, with “ADRA2B” for “HTR7”
T5 sequence (P18089 whole entry): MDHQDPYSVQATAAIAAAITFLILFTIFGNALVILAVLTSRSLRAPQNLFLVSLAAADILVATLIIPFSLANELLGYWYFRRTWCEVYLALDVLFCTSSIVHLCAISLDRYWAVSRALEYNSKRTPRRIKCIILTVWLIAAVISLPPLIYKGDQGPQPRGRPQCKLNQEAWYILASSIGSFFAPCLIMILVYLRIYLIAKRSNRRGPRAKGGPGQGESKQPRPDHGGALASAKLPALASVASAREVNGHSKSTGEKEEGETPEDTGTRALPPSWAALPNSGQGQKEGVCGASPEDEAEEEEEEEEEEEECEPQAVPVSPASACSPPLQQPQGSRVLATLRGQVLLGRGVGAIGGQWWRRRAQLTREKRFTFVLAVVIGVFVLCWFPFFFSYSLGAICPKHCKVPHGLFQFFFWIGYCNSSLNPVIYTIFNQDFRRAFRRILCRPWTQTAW

[15] = target: Sigma non-opioid intracellular receptor 1 (Homo sapiens, UniProt Q99720); test: as §1, with “SIGMAR1” for “HTR7”
[16] = target: Beta-3 adrenergic receptor (Homo sapiens, UniProt P13945); test: as §1, with “ADRB3” for “HTR7”
Histamine H1 receptor = Histamine H1 receptor (Homo sapiens, UniProt P35367); test: as §1, with “HRH1” for “HTR7”

Sequence of Histamine H2 receptor (P25021 whole entry): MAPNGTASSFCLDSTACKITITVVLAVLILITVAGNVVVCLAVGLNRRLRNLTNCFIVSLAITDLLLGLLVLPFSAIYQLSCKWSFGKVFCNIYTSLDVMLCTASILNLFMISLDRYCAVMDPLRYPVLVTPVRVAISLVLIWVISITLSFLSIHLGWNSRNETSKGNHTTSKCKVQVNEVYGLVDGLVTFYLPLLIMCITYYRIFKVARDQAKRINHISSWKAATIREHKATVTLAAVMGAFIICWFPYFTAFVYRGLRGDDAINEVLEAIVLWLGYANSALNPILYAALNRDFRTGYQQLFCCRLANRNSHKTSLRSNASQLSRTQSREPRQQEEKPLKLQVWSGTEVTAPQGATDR
Sequence of 5-hydroxytryptamine receptor 6 (P50406 whole entry): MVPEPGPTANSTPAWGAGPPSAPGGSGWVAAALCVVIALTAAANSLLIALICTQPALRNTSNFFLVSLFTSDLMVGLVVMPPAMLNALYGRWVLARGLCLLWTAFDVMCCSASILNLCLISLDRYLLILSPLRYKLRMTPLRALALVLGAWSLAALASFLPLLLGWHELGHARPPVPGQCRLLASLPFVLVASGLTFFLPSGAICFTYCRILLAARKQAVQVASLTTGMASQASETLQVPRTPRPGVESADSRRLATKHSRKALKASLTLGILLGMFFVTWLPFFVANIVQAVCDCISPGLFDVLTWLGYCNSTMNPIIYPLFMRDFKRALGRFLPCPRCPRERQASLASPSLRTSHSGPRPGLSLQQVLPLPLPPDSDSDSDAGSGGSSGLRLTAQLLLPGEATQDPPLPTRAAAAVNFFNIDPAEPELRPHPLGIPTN
Sequence of Sodium-dependent noradrenaline transporter (P23975 whole entry): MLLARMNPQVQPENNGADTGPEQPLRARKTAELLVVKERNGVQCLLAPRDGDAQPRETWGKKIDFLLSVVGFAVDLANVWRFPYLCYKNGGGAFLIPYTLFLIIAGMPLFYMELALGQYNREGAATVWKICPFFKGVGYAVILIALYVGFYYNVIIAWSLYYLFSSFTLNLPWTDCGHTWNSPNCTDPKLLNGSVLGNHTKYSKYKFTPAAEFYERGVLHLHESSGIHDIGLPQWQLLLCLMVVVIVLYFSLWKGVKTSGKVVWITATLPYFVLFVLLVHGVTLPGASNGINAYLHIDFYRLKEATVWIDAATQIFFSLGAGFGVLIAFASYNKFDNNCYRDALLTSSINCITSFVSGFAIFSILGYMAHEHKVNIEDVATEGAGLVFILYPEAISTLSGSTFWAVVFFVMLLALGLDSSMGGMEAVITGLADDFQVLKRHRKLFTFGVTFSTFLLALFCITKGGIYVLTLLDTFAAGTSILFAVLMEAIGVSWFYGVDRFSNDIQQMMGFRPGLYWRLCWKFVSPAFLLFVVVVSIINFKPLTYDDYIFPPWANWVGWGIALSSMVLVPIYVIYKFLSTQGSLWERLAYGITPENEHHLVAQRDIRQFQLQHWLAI
Sequence of 5-hydroxytryptamine receptor 5A (P47898 whole entry): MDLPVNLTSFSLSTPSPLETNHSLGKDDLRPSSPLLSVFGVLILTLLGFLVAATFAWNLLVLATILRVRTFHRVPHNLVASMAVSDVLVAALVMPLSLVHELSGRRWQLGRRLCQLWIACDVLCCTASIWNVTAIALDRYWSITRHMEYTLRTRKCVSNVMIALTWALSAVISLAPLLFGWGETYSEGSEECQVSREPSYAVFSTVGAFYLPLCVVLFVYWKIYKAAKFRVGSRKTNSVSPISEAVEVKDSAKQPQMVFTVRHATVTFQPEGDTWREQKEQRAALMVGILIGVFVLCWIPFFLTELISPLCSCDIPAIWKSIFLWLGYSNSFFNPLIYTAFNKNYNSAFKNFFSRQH
Sequence of Kappa-type opioid receptor (P41145 whole entry): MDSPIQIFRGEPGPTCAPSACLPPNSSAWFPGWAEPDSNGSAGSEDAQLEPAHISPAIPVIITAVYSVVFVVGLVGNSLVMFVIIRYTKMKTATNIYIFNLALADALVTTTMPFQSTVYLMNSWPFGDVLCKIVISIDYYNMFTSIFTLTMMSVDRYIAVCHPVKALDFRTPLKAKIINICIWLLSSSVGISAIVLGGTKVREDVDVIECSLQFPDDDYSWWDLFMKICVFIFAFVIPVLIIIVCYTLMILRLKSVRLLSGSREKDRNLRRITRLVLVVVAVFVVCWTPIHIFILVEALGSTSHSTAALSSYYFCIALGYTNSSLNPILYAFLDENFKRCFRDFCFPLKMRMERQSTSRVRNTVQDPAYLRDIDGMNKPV
Sequence of D(3) dopamine receptor (P35462 whole entry): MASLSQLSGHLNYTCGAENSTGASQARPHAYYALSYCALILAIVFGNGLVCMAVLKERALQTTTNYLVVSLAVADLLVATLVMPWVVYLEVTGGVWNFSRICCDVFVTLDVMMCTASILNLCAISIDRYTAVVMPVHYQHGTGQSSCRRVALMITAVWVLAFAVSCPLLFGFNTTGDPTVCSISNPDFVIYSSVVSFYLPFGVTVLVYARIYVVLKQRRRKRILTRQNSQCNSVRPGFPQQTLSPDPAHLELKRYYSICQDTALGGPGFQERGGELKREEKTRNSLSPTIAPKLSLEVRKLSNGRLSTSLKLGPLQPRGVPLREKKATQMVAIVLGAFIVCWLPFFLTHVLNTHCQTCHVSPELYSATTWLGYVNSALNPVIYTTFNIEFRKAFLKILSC
Sequence of Mu-type opioid receptor (P35372 whole entry): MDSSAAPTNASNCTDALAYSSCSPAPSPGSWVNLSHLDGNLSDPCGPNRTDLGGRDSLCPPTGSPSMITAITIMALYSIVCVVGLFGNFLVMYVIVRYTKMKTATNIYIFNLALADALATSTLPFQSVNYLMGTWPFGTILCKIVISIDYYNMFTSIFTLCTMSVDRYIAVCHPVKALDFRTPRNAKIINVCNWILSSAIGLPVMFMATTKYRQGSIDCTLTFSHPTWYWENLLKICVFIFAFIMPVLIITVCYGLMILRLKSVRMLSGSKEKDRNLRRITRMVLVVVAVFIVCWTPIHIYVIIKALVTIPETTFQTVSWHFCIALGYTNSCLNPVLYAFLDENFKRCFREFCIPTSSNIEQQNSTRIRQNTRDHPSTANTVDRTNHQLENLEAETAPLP
Sequence of Sigma intracellular receptor 2 (Q5BJF2 whole entry): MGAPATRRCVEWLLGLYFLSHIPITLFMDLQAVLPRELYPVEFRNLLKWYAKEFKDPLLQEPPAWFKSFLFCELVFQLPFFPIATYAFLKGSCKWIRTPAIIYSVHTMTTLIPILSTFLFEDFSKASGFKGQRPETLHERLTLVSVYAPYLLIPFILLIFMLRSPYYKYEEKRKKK
Sequence of 5-hydroxytryptamine receptor 2A (P28223 whole entry): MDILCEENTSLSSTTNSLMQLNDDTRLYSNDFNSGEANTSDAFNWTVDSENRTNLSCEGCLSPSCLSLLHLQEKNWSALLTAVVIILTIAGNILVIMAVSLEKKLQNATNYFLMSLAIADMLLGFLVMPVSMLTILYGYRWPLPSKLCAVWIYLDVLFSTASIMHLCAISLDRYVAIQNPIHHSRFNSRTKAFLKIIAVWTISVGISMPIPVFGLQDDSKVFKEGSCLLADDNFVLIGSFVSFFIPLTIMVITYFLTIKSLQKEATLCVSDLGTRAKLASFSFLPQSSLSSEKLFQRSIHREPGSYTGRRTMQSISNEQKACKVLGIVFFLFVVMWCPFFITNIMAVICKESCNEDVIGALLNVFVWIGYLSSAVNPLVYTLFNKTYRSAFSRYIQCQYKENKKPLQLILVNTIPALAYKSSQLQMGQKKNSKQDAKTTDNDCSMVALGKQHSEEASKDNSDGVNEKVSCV
Sequence of 5-hydroxytryptamine receptor 2B (P41595 whole entry): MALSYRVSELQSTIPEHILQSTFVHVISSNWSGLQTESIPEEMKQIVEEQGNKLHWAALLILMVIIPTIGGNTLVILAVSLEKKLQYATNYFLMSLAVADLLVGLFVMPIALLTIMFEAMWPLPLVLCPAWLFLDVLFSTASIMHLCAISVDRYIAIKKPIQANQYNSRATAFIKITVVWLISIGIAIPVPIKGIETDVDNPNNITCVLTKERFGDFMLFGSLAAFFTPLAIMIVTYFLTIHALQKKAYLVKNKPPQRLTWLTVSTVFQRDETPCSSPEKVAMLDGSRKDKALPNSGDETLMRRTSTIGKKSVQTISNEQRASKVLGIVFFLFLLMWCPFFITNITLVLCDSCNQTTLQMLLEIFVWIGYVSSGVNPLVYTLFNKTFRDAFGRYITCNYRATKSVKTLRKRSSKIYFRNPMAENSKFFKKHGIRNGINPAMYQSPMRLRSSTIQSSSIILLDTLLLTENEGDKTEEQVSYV
Sequence of 5-hydroxytryptamine receptor 1D (P28221 whole entry): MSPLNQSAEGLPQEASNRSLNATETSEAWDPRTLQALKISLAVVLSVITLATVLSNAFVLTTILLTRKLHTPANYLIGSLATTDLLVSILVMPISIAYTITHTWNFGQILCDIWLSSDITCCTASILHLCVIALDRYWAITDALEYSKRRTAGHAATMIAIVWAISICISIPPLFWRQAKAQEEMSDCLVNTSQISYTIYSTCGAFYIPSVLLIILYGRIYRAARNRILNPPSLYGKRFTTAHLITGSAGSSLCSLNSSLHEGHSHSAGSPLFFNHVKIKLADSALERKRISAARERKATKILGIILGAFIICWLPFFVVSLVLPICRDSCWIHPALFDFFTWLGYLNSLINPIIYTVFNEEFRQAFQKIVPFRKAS
Sequence of Beta-3 adrenergic receptor (P13945 whole entry): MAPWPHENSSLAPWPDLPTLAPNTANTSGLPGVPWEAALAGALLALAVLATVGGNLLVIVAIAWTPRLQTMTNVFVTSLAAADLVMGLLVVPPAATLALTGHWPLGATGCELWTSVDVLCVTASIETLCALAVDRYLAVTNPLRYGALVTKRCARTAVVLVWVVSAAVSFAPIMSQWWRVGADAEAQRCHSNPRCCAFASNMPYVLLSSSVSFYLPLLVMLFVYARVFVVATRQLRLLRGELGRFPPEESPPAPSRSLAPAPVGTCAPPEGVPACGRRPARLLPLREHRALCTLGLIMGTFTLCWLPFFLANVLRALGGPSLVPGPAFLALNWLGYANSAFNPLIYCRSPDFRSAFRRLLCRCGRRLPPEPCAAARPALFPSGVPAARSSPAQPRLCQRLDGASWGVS

Ki [1] [nM]	Ki (Histamine H2 receptor) [nM]	Ki [2] [nM]	Ki [3] [nM]	Ki [4] [nM]	Ki [5] [nM]	Ki [6] [nM]	Ki [7] [nM]	Ki (Mu-type opioid receptor) [nM]	Ki [8] [nM]	Ki [9] [nM]	Ki [10] [nM]	Ki [11] [nM]	Ki [12] [nM]	Ki [13] [nM]	Ki (D(3) dopamine receptor) [nM]	Ki [14] [nM]	Ki [15] [nM]	Ki [16] [nM]	Ki (Histamine H1 receptor) [nM]	Compound
571	2620	1960	658	39.7	1570	842	444	1300	1820	1450	972	2890	1700	388	391	–	–	–	–	C[C@@H](NCCCc1cccc(C(F)(F)F)c1)c1cccc2ccccc12 [CINACALCET HYDROCHLORIDE]
–	1400	1440	162	43	1580	181	1400	2210	2320	1930	1090	–	–	74.6	875	955	41.5	> 10000	909	COc1cccc([C@@H](C)NCCCc2ccccc2Cl)c1 [TECALCET HYDROCHLORIDE]
